Results published in PMC3754837 (Neuropharmacology, 2013).
pEC50, pKd, pKi: −log10 of the molar value.

How the values were obtained:
[1] = target: T1, m5-HT2C (C57Bl/6 mouse 5-HT2C-VNV receptor) (Mus musculus, UniProt P34968, I157V/I161V); assay: [3H]-inositol phosphate accumulation; type: cell-based
T1 sequence (P34968 33-459 I157V/I161V): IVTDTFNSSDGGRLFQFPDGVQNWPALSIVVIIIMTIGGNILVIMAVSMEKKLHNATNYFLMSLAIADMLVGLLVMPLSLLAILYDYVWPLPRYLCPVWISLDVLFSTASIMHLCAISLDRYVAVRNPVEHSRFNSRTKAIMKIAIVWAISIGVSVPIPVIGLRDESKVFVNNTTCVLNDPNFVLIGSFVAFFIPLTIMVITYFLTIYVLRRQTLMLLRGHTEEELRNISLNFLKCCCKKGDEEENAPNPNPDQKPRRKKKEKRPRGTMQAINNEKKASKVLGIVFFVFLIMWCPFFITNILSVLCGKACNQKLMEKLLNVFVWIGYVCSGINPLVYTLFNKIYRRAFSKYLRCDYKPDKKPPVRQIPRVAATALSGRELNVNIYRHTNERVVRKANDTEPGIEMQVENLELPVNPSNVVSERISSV

[2] = target: T1, m5-HT2C (C57Bl/6 mouse 5-HT2C-VNV receptor); assay: [3H]-mesulergine competition, HEK-293 membranes; type: binding
[3] = target: T2, h5-HT2A (human 5-HT2A receptor) (Homo sapiens, UniProt P28223); assay: [3H]-ketanserin competition, HEK-293 membranes; type: binding
[4] = target: T3, h5-HT2C (human 5-HT2C-INI receptor) (Homo sapiens, UniProt P28335); assay: [3H]-inositol phosphate accumulation; type: cell-based
T3 sequence (P28335 33-458): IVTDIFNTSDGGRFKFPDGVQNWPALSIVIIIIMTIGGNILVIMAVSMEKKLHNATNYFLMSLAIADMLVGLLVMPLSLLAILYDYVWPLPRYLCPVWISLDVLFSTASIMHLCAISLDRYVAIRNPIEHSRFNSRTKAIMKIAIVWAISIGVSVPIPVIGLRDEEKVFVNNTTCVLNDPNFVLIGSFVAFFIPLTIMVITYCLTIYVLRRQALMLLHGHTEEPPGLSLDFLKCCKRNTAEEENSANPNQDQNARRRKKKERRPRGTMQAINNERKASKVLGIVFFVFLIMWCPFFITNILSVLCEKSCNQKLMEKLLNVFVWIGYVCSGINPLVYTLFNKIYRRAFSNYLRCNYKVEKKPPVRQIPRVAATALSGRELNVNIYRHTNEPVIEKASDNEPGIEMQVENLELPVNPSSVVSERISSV

[5] = target: T4, m5-HT2A (C57Bl/6 mouse 5-HT2A receptor) (Mus musculus, UniProt P35363); assay: [3H]-ketanserin competition, HEK-293 membranes; type: binding
[6] = target: T3, h5-HT2C (human 5-HT2C-INI receptor); assay: biochemical; type: binding
[7] = target: T4, m5-HT2A (C57Bl/6 mouse 5-HT2A receptor); assay: [3H]-inositol phosphate accumulation; type: cell-based
[8] = target: T1, m5-HT2C (C57Bl/6 mouse 5-HT2C-VNV receptor); assay: saturation radioligand binding, HEK-293 membranes
[9] = target: T2, h5-HT2A (human 5-HT2A receptor); assay: [3H]-inositol phosphate accumulation; type: cell-based
[10] = target: T4, m5-HT2A (C57Bl/6 mouse 5-HT2A receptor); assay: saturation radioligand binding, HEK-293 membranes

T4 sequence (P35363 whole entry): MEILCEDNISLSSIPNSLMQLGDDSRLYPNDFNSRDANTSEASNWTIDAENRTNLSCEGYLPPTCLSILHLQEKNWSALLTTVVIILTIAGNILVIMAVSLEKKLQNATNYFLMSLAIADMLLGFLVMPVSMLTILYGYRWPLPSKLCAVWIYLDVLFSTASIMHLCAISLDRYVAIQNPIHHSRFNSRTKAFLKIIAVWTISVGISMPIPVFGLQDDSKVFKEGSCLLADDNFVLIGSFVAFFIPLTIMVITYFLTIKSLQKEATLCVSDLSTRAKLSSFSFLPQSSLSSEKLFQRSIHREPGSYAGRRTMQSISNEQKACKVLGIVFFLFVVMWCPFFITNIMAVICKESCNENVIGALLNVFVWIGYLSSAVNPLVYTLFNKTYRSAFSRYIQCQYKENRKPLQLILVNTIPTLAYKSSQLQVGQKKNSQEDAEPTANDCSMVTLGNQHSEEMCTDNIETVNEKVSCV
T2 sequence (P28223 whole entry): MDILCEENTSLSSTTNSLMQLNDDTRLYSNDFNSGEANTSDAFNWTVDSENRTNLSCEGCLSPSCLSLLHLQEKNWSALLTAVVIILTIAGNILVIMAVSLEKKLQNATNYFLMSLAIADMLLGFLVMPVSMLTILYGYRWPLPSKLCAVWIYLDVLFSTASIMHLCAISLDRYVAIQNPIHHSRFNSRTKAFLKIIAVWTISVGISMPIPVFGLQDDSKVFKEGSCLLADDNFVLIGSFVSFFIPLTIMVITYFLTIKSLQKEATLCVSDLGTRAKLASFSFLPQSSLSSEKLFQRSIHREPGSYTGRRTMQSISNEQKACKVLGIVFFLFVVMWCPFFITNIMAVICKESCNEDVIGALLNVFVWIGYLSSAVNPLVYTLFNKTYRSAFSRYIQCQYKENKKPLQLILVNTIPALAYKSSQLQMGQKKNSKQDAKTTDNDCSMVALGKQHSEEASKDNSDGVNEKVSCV

Row | Compound | pEC50 [1] | pKi [2] | pKi [3] | pEC50 [4] | pKi [5] | pKi [6] | pEC50 [7] | pKd [8] | pEC50 [9] | pKd [10]
1 | Cc1ccc([C@H]2C[C@H](N(C)C)Cc3ccccc32)cc1 [Methyl-PAT, (−)-(2S, 4R)-trans-4-(4′-methyl)-N,N-dimethylaminotetralin] | 6.09 | 6.06 | 6.75 | 5.95 | 6.49 | 6.89 | – | – | – | –
2 | CN(C)[C@@H]1Cc2ccccc2[C@@H](c2ccccc2)C1 [(−)-PAT] | 7.41 | 7.28 | 6.99 | – | 6.94 | – | – | – | – | –
3 | Cn1ccc2cc3c(cc21)CCN3C(=O)Nc1cccnc1 [SB-206553] | – | – | 6.17 | – | 6.47 | – | – | – | – | –
4 | Cc1cc2c(cc1Cl)N(C(=O)Nc1ccc(Oc3cccnc3C)nc1)CC2 [SB-242084] | – | 10.00 | 6.84 | – | 7.02 | 8.82 | – | – | – | –
5 | COc1cc(CC(C)N)c(OC)cc1I (racemic) [(±)-DOI] | 8.47 | 7.33 | – | 8.26 | 8.40 | 7.72 | 8.59 | – | – | –
6 | CN1C[C@@H](NS(=O)(=O)N(C)C)C[C@@H]2c3cccc4c3c(cn4C)C[C@H]21 [[^3H]-mesulergine] | – | – | – | – | – | – | – | 8.66 | – | –
7 | CN(C)[C@H]1Cc2ccccc2[C@H](c2ccccc2)C1 [(+)-PAT] | 5.67 | 5.76 | 6.33 | – | 6.48 | – | 6.45 | – | 6.63 | –
8 | O=C(c1ccc(F)cc1)C1CCN(CCn2c(=O)[nH]c3ccccc3c2=O)CC1 [[^3H]-ketanserin] | – | – | – | – | – | – | – | – | – | 9.04
